In data set [1] the test system is GABAA (γ-aminobutyric acidA) receptors. Kind of data set: GABAA receptor ligand activity. Format: binding. As to conditions: amorphous form, stated to be like crystalline compound (I).
A short description of data set [2]: Solubility of solid forms of compound (I).
The subject of data set [3] is GABAA (γ-aminobutyric acidA) receptors. As to conditions: as described in PCT/EP2006/063243 and U.S. 60/692866; cited from earlier work.

`CC(=O)N(C)c1cc(-c2ccnc3c(C(=O)c4cccs4)cnn23)ccc1F` [amorphous form, N-{2-Fluoro-5-[3-(thiophene-2-carbonyl)-pyrazolo[1,5-a]pyrimidin-7-yl]-phenyl}-N-methyl-acetamide]: the “ligand of GABAA” value in data set [1] is “potent ligand”. The “solubility of the amorphous form relative to crystalline product” value in data set [2] (amorphous versus crystalline product) is recorded as “about twice as high”.
Regarding `CC(=O)N(C)c1cc(-c2ccnc3c(C(=O)c4cccs4)cnn23)ccc1F` [compound (I), N-{2-Fluoro-5-[3-(thiophene-2-carbonyl)-pyrazolo[1,5-a]pyrimidin-7-yl]-phenyl}-N-methyl-acetamide], the “ligand of GABAA receptors” value in data set [3] is “potent ligand”.
For the compound `CC(=O)N(C)c1cc(-c2ccnc3c(C(=O)c4cccs4)cnn23)ccc1F` [crystalline form of compound (I), N-{2-Fluoro-5-[3-(thiophene-2-carbonyl)-pyrazolo[1,5-a]pyrimidin-7-yl]-phenyl}-N-methyl-acetamide], the solubility entry in data set [2] (crystalline form, qualitative statement) is recorded as “very low soluble”.

Values taken from US8338436B2, “Amorphous form of N-{2-fluoro-5-[3-(thiophene-2-carbonyl)-pyrazolo[1,5-a]pyrimidin-7-yl]-phenyl}-N-methyl-acetamide” (Ferrer International, S.A., priority 2006, dated 2012).
